# Reference: patent US20210251963A1, “UREA DERIVATIVES FOR USE IN THE TREATMENT OF SUBJECTS WITH ELEVATED EXPRESSION AND/OR ACTIVITY OF SRPK1” (Scandion Oncology A/S, priority 2018, published 2021)
# Key:
# BRSK1 = target: T1, BRSK1 (Homo sapiens, UniProt Q8TDC3); assay: Premier Screen kinase activity screening (33P ATP filter binding); type: biochemical; conditions: 10 μM SCO-101, mean of assay duplicates, read-out: Kinase activity (percentage of DMSO control)
# T1 construct: purchased MRC in Dundee (Premier Screen service)
# Source text: (§1) The kinase activity screening was done at MRC in Dundee. The screen was a so-called “Premier Screen” with 140 kinases. More specific information can be found here: http://www.kinase-screen.mrc.ac.uk/services/premier-screen
# (§2) The method is based on a radioactive filter binding assay using 33P ATP (Hastie, et al 2006. Nat Protoc. 2006; 1(2):968-71; Bain, et al 2007. Biochem J. 2007 Dec. 15; 408(3):297-315). This method is sensitive, accurate and provides a direct measure of kinase enzyme activity. A concentration of 10 μM SCO-101 was used.
# (§3) In the table below, the data is portrayed as the mean percentage activity of assay duplicates and a standard deviation. These percentage activities were calculated in comparison to DMSO controls. 10 μM SCO-101 reduced the activity of SRPK1 to 6% of the DMSO control.
# CHK1 = target: T2, CHK1 (Homo sapiens, UniProt O14757); assay: as above; type: biochemical; conditions: 10 μM SCO-101, mean of assay duplicates, read-out: Kinase activity (percentage of DMSO control)
# T2 construct: purchased MRC in Dundee (Premier Screen service)
# T2 sequence (O14757 whole entry, species assumed): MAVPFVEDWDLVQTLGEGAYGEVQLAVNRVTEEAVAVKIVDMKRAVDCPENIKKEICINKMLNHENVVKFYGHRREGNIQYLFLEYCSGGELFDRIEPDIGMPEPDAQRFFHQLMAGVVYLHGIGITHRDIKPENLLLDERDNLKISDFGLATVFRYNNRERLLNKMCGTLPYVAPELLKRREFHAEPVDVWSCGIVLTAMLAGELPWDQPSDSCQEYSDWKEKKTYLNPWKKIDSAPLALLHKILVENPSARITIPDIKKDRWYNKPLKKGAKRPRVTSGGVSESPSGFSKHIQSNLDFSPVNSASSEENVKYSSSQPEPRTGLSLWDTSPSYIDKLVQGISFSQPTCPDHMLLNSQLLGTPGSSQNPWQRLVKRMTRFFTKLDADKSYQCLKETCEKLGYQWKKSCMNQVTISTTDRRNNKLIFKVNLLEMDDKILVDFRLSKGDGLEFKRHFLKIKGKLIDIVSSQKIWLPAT
# Source text: as §1, §2, §3
# DYRK3 = target: T3, DYRK3 (Homo sapiens, UniProt O43781); assay: as above; type: biochemical; conditions: 10 μM SCO-101, mean of assay duplicates, read-out: Kinase activity (percentage of DMSO control)
# T3 construct: purchased MRC in Dundee (Premier Screen service)
# Source text: as §1, §2, §3
# EF2K = target: T4, EF2K (Homo sapiens, UniProt O00418); assay: as above; type: biochemical; conditions: 10 μM SCO-101, mean of assay duplicates, read-out: Kinase activity (percentage of DMSO control)
# T4 construct: MRC Dundee (screening service)
# Source text: as §1, §2, §3
# EPH-B4 = target: T5, EPH-B4 (Homo sapiens, UniProt P54760); assay: as above; type: biochemical; conditions: 10 μM SCO-101, mean of assay duplicates, read-out: Kinase activity (percentage of DMSO control)
# T5 construct: MRC in Dundee (screening service)
# Source text: as §1, §2, §3
# ERK2 = ERK2 (Homo sapiens, UniProt P28482); assay: as above; type: biochemical; conditions: 10 μM SCO-101, mean of assay duplicates, read-out: Kinase activity (percentage of DMSO control)
# Source text: as §1, §2, §3
# IKKe = target: T6, IKKe (Homo sapiens, UniProt Q14164); assay: as above; type: biochemical; conditions: 10 μM SCO-101, mean of assay duplicates, read-out: Kinase activity (percentage of DMSO control)
# T6 construct: purchased MRC in Dundee (Premier Screen service)
# T6 sequence (Q14164 whole entry, species assumed): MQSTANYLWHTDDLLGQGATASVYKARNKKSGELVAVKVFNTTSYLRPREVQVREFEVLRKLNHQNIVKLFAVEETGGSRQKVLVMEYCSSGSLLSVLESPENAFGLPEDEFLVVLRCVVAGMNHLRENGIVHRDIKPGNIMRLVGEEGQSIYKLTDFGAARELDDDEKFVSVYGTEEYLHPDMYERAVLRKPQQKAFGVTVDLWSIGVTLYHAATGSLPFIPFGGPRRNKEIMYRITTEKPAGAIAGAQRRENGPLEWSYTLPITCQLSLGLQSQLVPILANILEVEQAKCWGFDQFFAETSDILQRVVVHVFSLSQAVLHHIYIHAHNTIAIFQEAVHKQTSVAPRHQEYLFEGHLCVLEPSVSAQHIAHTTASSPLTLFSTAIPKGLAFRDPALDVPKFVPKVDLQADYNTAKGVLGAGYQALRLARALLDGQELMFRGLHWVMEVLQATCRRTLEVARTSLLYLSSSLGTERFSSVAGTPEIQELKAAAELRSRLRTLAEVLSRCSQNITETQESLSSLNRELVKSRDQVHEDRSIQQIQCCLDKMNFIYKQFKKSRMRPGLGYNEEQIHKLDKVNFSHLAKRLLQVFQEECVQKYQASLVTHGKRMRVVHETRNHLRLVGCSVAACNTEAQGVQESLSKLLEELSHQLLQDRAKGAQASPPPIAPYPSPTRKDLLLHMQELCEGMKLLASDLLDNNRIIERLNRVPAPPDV
# Source text: as §1, §2, §3
# LKB1 = target: T7, LKB1 (Homo sapiens, UniProt Q15831); assay: as above; type: biochemical; conditions: 10 μM SCO-101, mean of assay duplicates, read-out: Kinase activity (percentage of DMSO control)
# T7 construct: MRC Dundee (screening service)
# T7 sequence (Q15831 whole entry, species assumed): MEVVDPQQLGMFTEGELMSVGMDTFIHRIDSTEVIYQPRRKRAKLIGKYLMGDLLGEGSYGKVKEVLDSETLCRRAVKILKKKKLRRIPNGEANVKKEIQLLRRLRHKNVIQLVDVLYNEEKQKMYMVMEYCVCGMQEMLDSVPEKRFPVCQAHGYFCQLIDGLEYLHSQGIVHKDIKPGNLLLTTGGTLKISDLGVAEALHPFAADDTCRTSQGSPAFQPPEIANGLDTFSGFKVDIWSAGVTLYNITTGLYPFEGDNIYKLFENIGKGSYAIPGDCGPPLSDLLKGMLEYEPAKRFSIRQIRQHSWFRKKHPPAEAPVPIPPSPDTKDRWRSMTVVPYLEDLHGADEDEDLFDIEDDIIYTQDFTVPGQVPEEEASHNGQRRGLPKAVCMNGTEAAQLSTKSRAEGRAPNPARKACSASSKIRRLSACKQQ
# T7 sequence (Q7RTN6 whole entry partner, species assumed): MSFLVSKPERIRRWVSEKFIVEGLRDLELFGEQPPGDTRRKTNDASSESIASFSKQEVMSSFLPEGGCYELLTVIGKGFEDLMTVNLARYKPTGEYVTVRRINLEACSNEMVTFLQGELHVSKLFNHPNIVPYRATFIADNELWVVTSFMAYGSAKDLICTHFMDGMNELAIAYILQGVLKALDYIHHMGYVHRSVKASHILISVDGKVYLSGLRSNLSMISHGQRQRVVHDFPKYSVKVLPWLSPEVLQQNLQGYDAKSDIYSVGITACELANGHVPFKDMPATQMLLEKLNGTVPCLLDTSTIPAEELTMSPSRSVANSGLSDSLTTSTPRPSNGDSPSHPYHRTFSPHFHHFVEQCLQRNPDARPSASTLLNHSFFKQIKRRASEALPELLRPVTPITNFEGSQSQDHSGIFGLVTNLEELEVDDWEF
# T7 sequence (Q9Y376 whole entry partner, species assumed): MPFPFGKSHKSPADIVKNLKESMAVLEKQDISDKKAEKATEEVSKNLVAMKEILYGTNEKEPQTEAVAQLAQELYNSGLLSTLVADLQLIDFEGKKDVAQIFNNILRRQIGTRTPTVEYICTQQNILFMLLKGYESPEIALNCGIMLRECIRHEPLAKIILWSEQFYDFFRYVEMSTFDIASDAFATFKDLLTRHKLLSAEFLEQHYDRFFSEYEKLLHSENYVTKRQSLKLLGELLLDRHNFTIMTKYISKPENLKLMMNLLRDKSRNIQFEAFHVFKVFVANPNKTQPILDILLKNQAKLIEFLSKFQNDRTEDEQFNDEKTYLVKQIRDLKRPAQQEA
# Source text: as §1, §2, §3
# MPSK1 = MPSK1 (Homo sapiens, UniProt O75716); assay: as above; type: biochemical; conditions: 10 μM SCO-101, mean of assay duplicates, read-out: Kinase activity (percentage of DMSO control)
# Source text: as §1, §2, §3
# NEK2a = target: T8, NEK2a (Homo sapiens, UniProt P51955); assay: as above; type: biochemical; conditions: 10 μM SCO-101, mean of assay duplicates, read-out: Kinase activity (percentage of DMSO control)
# T8 construct: purchased MRC in Dundee (Premier Screen service)
# Source text: as §1, §2, §3
# NEK6 = target: T9, NEK6 (Homo sapiens, UniProt Q9HC98); assay: as above; type: biochemical; conditions: 10 μM SCO-101, mean of assay duplicates, read-out: Kinase activity (percentage of DMSO control)
# T9 construct: MRC in Dundee (screening service)
# T9 sequence (Q9HC98 whole entry, species assumed): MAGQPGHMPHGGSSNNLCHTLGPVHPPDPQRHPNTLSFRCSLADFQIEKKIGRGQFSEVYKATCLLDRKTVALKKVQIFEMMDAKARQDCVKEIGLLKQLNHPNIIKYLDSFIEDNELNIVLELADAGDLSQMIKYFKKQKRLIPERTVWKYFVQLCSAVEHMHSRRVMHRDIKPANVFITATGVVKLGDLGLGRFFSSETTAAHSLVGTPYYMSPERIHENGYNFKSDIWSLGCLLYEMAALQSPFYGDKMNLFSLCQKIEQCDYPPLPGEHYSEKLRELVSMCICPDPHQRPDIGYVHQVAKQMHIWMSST
# Source text: as §1, §2, §3
# OSR1 = target: T10, OSR1 (Homo sapiens, UniProt O95747); assay: as above; type: biochemical; conditions: 10 μM SCO-101, mean of assay duplicates, read-out: Kinase activity (percentage of DMSO control)
# T10 construct: MRC in Dundee (screening service)
# Source text: as §1, §2, §3
# PAK2 = target: T11, PAK2 (Homo sapiens, UniProt Q13177); assay: as above; type: biochemical; conditions: 10 μM SCO-101, mean of assay duplicates, read-out: Kinase activity (percentage of DMSO control)
# T11 construct: MRC in Dundee (screening service)
# Source text: as §1, §2, §3
# PAK4 = target: T12, PAK4 (Homo sapiens, UniProt O96013); assay: as above; type: biochemical; conditions: 10 μM SCO-101, mean of assay duplicates, read-out: Kinase activity (percentage of DMSO control)
# T12 construct: purchased MRC in Dundee (Premier Screen service)
# Source text: as §1, §2, §3
# PAK5 = PAK5 (Homo sapiens, UniProt Q9P286); assay: as above; type: biochemical; conditions: 10 μM SCO-101, mean of assay duplicates, read-out: Kinase activity (percentage of DMSO control)
# Source text: as §1, §2, §3
# PIM2 = target: T13, PIM2 (Homo sapiens, UniProt Q9P1W9); assay: as above; type: biochemical; conditions: 10 μM SCO-101, mean of assay duplicates, read-out: Kinase activity (percentage of DMSO control)
# T13 construct: purchased MRC in Dundee (Premier Screen service)
# T13 sequence (Q9P1W9 whole entry, species assumed): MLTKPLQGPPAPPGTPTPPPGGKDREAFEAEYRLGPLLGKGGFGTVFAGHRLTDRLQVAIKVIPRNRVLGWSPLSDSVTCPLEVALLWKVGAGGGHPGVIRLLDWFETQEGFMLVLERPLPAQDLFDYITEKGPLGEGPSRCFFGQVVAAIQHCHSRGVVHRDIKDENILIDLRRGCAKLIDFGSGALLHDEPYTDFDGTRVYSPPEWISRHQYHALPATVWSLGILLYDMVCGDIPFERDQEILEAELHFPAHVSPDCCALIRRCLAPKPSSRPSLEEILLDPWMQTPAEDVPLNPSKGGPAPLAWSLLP
# Source text: as §1, §2, §3
# PINK = target: T14, PINK (Tribolium castaneum, UniProt D6WMX4); assay: as above; type: biochemical; conditions: 10 μM SCO-101, mean of assay duplicates, read-out: Kinase activity (percentage of DMSO control)
# T14 construct: purchased MRC Dundee, Premier Screen (contract screening service)
# Source text: as §1, §2, §3
# PKA = target: T15, PKA (Homo sapiens, UniProt P17612); assay: as above; type: biochemical; conditions: 10 μM SCO-101, mean of assay duplicates, read-out: Kinase activity (percentage of DMSO control)
# T15 construct: purchased MRC Dundee, Premier Screen (contract screening service)
# Source text: as §1, §2, §3
# PRK2 = PRK2 (Homo sapiens, UniProt Q16513); assay: as above; type: biochemical; conditions: 10 μM SCO-101, mean of assay duplicates, read-out: Kinase activity (percentage of DMSO control)
# Chain of PRK2 (Q16513 whole entry, species assumed): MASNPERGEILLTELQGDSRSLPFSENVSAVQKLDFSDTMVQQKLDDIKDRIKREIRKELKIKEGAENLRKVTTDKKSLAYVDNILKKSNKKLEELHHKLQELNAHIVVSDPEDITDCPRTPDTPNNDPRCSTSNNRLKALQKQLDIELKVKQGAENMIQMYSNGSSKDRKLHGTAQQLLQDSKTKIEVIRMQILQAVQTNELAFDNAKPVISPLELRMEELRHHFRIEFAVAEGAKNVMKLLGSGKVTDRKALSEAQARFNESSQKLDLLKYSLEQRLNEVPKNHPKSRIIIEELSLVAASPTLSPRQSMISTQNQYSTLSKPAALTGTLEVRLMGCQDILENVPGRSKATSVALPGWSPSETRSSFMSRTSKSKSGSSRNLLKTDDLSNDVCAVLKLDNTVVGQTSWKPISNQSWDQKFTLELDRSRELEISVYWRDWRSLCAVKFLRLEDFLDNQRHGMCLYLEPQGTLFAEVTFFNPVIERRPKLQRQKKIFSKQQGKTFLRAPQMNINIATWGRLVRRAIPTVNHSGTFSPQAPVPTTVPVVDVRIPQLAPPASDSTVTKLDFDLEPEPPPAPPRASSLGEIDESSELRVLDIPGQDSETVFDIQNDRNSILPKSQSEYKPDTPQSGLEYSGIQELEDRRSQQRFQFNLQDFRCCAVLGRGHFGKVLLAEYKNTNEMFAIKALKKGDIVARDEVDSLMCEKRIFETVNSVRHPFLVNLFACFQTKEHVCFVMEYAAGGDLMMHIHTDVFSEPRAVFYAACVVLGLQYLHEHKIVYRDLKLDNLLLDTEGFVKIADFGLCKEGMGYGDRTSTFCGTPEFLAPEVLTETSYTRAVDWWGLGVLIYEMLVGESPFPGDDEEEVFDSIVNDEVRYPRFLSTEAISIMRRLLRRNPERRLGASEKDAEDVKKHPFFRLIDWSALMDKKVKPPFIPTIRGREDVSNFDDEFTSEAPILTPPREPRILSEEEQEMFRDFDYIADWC
# Source text: as §1, §2, §3
# RSK1 = target: T16, RSK1 (Homo sapiens, UniProt Q15418); assay: as above; type: biochemical; conditions: 10 μM SCO-101, mean of assay duplicates, read-out: Kinase activity (percentage of DMSO control)
# T16 construct: MRC Dundee (screening service)
# Source text: as §1, §2, §3
# S6K1 = target: T17, S6K1 (Homo sapiens, UniProt P23443); assay: as above; type: biochemical; conditions: 10 μM SCO-101, mean of assay duplicates, read-out: Kinase activity (percentage of DMSO control)
# T17 construct: MRC in Dundee (screening service)
# Source text: as §1, §2, §3
# SYK = target: T18, SYK (Homo sapiens, UniProt P43405); assay: as above; type: biochemical; conditions: 10 μM SCO-101, mean of assay duplicates, read-out: Kinase activity (percentage of DMSO control)
# T18 construct: purchased MRC in Dundee (Premier Screen service)
# Source text: as §1, §2, §3
# SmMLCK = target: T19, SmMLCK (Homo sapiens, UniProt Q15746); assay: as above; type: biochemical; conditions: 10 μM SCO-101, mean of assay duplicates, read-out: Kinase activity (percentage of DMSO control)
# T19 construct: purchased MRC in Dundee (Premier Screen service)
# T19 sequence (Q15746 923-1914): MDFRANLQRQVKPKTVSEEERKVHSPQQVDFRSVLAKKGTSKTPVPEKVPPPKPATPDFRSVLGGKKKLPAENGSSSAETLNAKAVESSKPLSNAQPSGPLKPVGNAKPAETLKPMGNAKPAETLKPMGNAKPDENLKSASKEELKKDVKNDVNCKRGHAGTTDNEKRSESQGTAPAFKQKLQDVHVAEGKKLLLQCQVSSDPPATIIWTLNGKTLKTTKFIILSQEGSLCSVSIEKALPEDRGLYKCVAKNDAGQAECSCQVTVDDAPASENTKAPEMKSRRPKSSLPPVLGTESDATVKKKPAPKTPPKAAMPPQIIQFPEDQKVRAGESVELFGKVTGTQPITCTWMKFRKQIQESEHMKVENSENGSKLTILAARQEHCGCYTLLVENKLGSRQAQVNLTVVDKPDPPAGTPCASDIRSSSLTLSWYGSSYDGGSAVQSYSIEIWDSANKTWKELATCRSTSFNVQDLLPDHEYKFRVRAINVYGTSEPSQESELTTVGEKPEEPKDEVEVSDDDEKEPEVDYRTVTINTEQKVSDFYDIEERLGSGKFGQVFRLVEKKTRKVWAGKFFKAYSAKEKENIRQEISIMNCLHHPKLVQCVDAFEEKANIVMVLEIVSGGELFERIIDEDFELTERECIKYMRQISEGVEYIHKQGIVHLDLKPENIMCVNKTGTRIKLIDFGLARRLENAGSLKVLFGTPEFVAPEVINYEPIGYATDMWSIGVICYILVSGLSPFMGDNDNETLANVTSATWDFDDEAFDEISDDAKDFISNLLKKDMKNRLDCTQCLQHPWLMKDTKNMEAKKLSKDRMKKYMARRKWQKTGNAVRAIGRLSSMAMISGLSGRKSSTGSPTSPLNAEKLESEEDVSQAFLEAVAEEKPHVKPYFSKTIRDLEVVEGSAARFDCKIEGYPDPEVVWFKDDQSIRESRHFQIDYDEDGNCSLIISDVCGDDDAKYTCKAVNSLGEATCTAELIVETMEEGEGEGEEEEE
# Source text: as §1, §2, §3
# TESK1 = target: T20, TESK1 (Homo sapiens, UniProt Q15569); assay: as above; type: biochemical; conditions: 10 μM SCO-101, mean of assay duplicates, read-out: Kinase activity (percentage of DMSO control)
# T20 construct: purchased MRC in Dundee (Premier Screen service)
# Source text: as §1, §2, §3
# TIE2 = target: T21, TIE2 (Homo sapiens, UniProt Q02763); assay: as above; type: biochemical; conditions: 10 μM SCO-101, mean of assay duplicates, read-out: Kinase activity (percentage of DMSO control)
# T21 construct: MRC Dundee (screening service)
# Source text: as §1, §2, §3
# TTBK1 = target: T22, TTBK1 (Homo sapiens, UniProt Q5TCY1); assay: as above; type: biochemical; conditions: 10 μM SCO-101, mean of assay duplicates, read-out: Kinase activity (percentage of DMSO control)
# T22 construct: MRC in Dundee (screening service)
# Source text: as §1, §2, §3
# TTK = target: T23, TTK (Homo sapiens, UniProt P33981); assay: as above; type: biochemical; conditions: 10 μM SCO-101, mean of assay duplicates, read-out: Kinase activity (percentage of DMSO control)
# T23 construct: MRC in Dundee (screening service)
# Source text: as §1, §2, §3
# YES1 = target: T24, YES1 (Homo sapiens, UniProt P07947); assay: as above; type: biochemical; conditions: 10 μM SCO-101, mean of assay duplicates, read-out: Kinase activity (percentage of DMSO control)
# T24 construct: MRC Dundee (screening service)
# Source text: as §1, §2, §3
# p38a MAPK = target: T25, p38a MAPK (Homo sapiens, UniProt Q16539); assay: as above; type: biochemical; conditions: 10 μM SCO-101, mean of assay duplicates, read-out: Kinase activity (percentage of DMSO control)
# T25 construct: purchased MRC in Dundee (Premier Screen service)
# Source text: as §1, §2, §3
# [1] = Cell viability (MTT assay); type: cell-based; conditions: human, HT29 SN38 resistant colon cancer cells, HT29 SN38 resistant, SCO-101 20 μM alone, read-out: cell viability, % of untreated control cells
# Experimental: (§4) SN38 was applied to a SN38 sensitive colon cancer cell line (“HT29 parental”) and to a SN38 resistant colon cancer cell line (“HT29 SN38 resistant”).
# (§5) The Log Concentration (μM) used are—1 for SN38. Data represents cell viability data (MTT assay) and cells were incubated with drugs for 72 hours.
# (§6) The Log Concentrations (μM) used are—1 for SN38, and 1.5 for both Srpkin340 and Sphinx 31. Data represents cell viability data (MTT assay) and cells were incubated with drugs for 72 hours.
# [2] = system: HT29 SN38 resistant colon cancer cells; assay: Cell viability (MTT assay); type: cell-based; conditions: 72 hours
# Experimental: as §4, §5, §6
smiles,measurement,setting,value
O=C(Nc1cc(C(F)(F)F)cc(C(F)(F)F)c1)Nc1ccc(Br)cc1-c1nnn[nH]1 [SCO-101],remaining activity at 10 µM,BRSK1,124%
same,remaining activity at 10 µM,CHK1,195%
same,remaining activity at 10 µM,DYRK3,59%
same,remaining activity at 10 µM,EF2K,95%
same,remaining activity at 10 µM,EPH-B4,86%
same,remaining activity at 10 µM,ERK2,119%
same,remaining activity at 10 µM,IKKe,75%
same,remaining activity at 10 µM,LKB1,96%
same,remaining activity at 10 µM,MPSK1,115%
same,remaining activity at 10 µM,NEK2a,134%
same,remaining activity at 10 µM,NEK6,90%
same,remaining activity at 10 µM,OSR1,94%
same,remaining activity at 10 µM,PAK2,83%
same,remaining activity at 10 µM,PAK4,38%
same,remaining activity at 10 µM,PAK5,121%
same,remaining activity at 10 µM,PIM2,72%
same,remaining activity at 10 µM,PINK,104%
same,remaining activity at 10 µM,PKA,106%
same,remaining activity at 10 µM,PRK2,120%
same,remaining activity at 10 µM,RSK1,100%
same,remaining activity at 10 µM,S6K1,92%
same,remaining activity at 10 µM,SYK,62%
same,remaining activity at 10 µM,SmMLCK,77%
same,remaining activity at 10 µM,TESK1,54%
same,remaining activity at 10 µM,TIE2,95%
same,remaining activity at 10 µM,TTBK1,94%
same,remaining activity at 10 µM,TTK,88%
same,remaining activity at 10 µM,YES1,99%
same,remaining activity at 10 µM,p38a MAPK,63%
same,"viability at 72 h, 20 μM",[1],96%
same,viability at 20 µM,"[2]; Homo sapiens, HT-29, HT29 SN38 resistant, combination of SN38 0.1 μM and SCO-101 20 μM, read-out: cell viability, % of untreated control cells",22%
same,re-sensitization of SN38 resistant HT29 cells to SN38,[2]; SCO-101 20 μM with SN38 0.1 μM,re-sensitization
